Experimental data published in patent US20080234202A1, “Non-natural amino acids and neurotensin analogues” (priority 2004, published 2008).
Counter-ions that a name gives are not always drawn. Like-named read-outs stand apart in the source and are kept apart here. Marks after values point to notes of the source that are not given here. Where a SMILES comes first, the peptide text is derived from it. [ ]: non-standard residue; d: D form. The star is where a group is joined. X4 = [N-]=[N+]=N[C@@H](CCCCCN)C(=O)*; X2 = C[C@@H](CCC[N+](C)(C)C)C(=O)*; Tle = CC(C)(C)[C@H](N)C(=O)O; X1 = C[C@@H](CCCCCN)C(=O)*

What was measured:
NTR-2 [1] = biological target: NTR-2 (Rattus norvegicus, UniProt Q63384); conditions: for Tmax (I.P.) of %MPE / MPE (I.P.): IP at 10 mg/kg; for asterisk at peptide name: significant activity in the hotplate assay: Table 13; for MPE (I.P.): hotplate 52 C, cutoff 30 sec; for MPE (oral) / Tmax (Oral) of %MPE: orally at 20 mg/kg
Procedure: Animals. […] (230-260 g) or Harlan, Prattville Ala.
The Hotplate Assay. The hotplate assay, a standard rat model for […] pain (see Le Bars et al., Pharmacol. Rev. 53: 597-652 (2001) and Chapman et al., Pain 22:1-31 (2002)), was performed as follows. A hotplate maintained at 52° C. to 53° C. was enclosed on four sides in a plexiglass chamber that extended 6 in. above the plate. Animals were placed on the plate, and the latency between the time a rat was placed on the surface and when it lifts or licks a back paw (indicative of pain sensation) was determined. Animals are removed immediately at the cutoff latency of 30 seconds. Assays are scored as the percent of maximal possible effect (% MPE) defined as 100%, which corresponds to the rats remaining on the hotplate for 30 seconds without responding. Thus, % MPE are calculated using the following equation: % MPE=[(post-drug latency-pre-drug latency)/(cut-off pre-drug latency)]×100%. N=6 or greater for all experiments.
Values for each set of experiments will be submitted to analysis of variance, with dose (vehicle and 5 levels) as the factor. […] An effect will be considered significant if p<0.05.
Tmax indicates the time after dosing in which a maximum response was observed.
Initial screens of all peptides included (1) evaluating their analgesic ability when dosed IP or orally (indicative of NTR-2 agonism) and (2) evaluating their ability to induce hypothermia when IP, a secondary effect of NTR-1 agonist activity.

NTR-1 = NTR-1 (Homo sapiens, UniProt P30989); test: Competitive NTR-1 binding versus radiolabeled NT[8-13]
NTR-2 [2] = biological target: NTR-2 (Homo sapiens, UniProt O95665); test: Competitive NTR-2 binding versus radiolabeled NT[8-13]
[3] = Acute toxicity, clinical observation and maximum tolerated dose in rats; assay type: in vivo, rat
Procedure: During the 2 and 24 hour post-dosing clinical observation periods, measurements of core body temperatures were taken.

[4] = Pharmacokinetics of ABS212 in Sprague-Dawley rats; assay type: in vivo, rat; conditions: for Vd: read-out: volume of distribution at terminal phase; for half-life: read-out: half-life (T1/2) (converted); for clearance: read-out: systemic clearance (converted)
Source text: These samples were used for the determination of plasma parent drug concentrations by LC/MS/MS for estimating pharmacokinetic parameters and oral bioavailability.

Formalin assay = conditions: morphine 5 mg/kg, approximately equimolar
Tail flick assay = conditions: ABS212 10 mg/kg, Morphine 5 mg/kg
[5] = d-Amphetamine induced hyperlocomotion and spontaneous locomotor activity; assay type: in vivo, rat; conditions: Table 11
Source text: This model operates on the assumption that the direct stimulation of DA receptors within the mesolimbic DA system is responsible for the locomotor response.
Sound- and light-attenuated locomotor cages are used to measure the ability of potential candidates to decrease d-amphetamine-induced hyperactivity.
d-Amphetamine induced hyperlocomotion. Experimentally I male Sprague-Dawley rats were housed as described above. Rats were handled for three days prior to testing to minimize experimenter induced hyperlocomotion on test day. For experiments, sound- and light-attenuated automated photocell beam activity chambers (AccuScan Instruments, Inc., Columbus, Ohio) were used to measure locomotion. Cages were connected to a VersaMax Analyzer (AccuScan) in conjunction with an IBM computer using VersaMax 1.80-0146 software (AccuScan) to record vertical and horizontal activity. Total activity values recorded were the sum of vertical and horizontal activity.
Each animal's activity was measured by how many times per minute the animal “trips” a photobeam in a computer-controlled photocell activity chamber (San Diego Instruments, San Diego, Calif.). […] Doses were assigned so that each was assessed in 12 chambers that were distributed over the apparatus, which controls for variations in lighting, etc. of the different chambers. […]

[6] = rat, in vivo
Procedure: Cataleptic Analysis. In laboratory tests, catalepsy is characterized by the inability of an animal to correct its position after placement in an unnatural posture. […] To circumvent these potential confounding factors, tests are performed on an animal only once in a quiet, controlled environment.
Catalepsy Assessment. […] Rats were given an IP injection of peptide (5 mg/Kg), saline, or haloperidol (1 mg/kg). After 3 hours, catalepsy was measured using the horizontal bar test. Briefly, the front paws were placed directly on a horizontal bar 5 mm in diameter placed 7.5 cm above the cage floor. The rat was held in this position for 3 sec and then released. The time from release until the paws return to the cage floor was measured and recorded. A cut-off time of 30 sec was observed; this indicated a fully cataleptic animal as cataleptic animals are frozen to the bar. […] Measures were repeated every 30 min for 4 hr. Data are means±SEM (p<0.01).
After 2 h, catalepsy was measured using the horizontal bar test. Data are means±SEM (p<0.01).

in vitro = conditions: plasma
[7] = Sprague-Dawley, rat, plasma, IV bolus 1 mg/kg
[8] = Sprague-Dawley, rat, plasma, IV bolus 2.5 mg/kg
[9] = Sprague-Dawley, rat, plasma, IV bolus 5 mg/kg
[10] = Sprague-Dawley, rat, plasma, oral 50 mg/kg

Sequence of NTR-1 (P30989 whole entry, species assumed): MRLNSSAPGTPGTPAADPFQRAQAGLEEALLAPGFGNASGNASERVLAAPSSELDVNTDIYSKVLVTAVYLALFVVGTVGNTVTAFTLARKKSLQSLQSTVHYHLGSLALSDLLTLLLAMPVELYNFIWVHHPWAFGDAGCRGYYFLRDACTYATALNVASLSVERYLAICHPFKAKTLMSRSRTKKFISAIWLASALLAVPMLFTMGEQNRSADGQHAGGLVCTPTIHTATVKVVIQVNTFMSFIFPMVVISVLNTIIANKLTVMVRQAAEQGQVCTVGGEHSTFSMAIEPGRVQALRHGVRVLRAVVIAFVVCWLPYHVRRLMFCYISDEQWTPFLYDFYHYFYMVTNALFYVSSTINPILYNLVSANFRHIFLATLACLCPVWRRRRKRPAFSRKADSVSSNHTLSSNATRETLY
Sequence of NTR-2 (Rattus norvegicus, UniProt Q63384) (Q63384 whole entry): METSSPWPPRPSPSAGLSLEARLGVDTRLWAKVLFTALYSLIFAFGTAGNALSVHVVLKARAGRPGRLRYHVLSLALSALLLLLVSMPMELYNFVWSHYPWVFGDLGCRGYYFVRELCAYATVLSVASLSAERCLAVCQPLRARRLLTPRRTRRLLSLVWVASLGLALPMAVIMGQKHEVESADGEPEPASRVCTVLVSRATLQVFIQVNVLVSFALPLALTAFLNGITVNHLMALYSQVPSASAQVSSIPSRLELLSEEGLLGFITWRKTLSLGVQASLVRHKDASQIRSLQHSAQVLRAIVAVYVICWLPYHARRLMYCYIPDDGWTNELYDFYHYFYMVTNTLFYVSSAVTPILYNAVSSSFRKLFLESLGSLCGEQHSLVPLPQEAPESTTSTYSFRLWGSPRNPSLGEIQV
Sequence of NTR-2 (Homo sapiens, UniProt O95665) (O95665 whole entry, species assumed): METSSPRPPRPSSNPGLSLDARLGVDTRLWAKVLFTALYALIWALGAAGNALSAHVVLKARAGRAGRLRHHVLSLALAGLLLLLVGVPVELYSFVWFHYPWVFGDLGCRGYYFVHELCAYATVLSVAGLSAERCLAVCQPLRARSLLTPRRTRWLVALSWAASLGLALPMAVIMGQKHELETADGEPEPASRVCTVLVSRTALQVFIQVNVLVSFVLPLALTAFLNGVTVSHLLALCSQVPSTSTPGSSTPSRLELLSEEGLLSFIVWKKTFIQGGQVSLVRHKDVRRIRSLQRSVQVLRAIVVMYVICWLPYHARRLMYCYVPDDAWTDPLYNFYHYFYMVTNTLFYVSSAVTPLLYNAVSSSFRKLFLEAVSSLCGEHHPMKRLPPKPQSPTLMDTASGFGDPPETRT

## 1-Arg-Pro-Tyr-t-Leu-Leu [ABS202]
NTR-2 [1]; 10 mg/kg
  Tmax (I.P.) of %MPE: 30-75
  MPE (I.P.): 100%
NTR-2 [1]
  asterisk at peptide name: significant activity in the hotplate assay: ABS202*
NTR-2 [1]; hotplate 52° C., cutoff 30 seconds, Table 10
  % MPE: 100%
NTR-2 [1]; hotplate, Table 10
  % MPE (tmax, min): 45 min
NTR-2 [1]; hotplate, 20 mg/kg
  MPE (oral): 52%
NTR-2 [1]; 20 mg/kg
  Tmax (Oral) of %MPE: 45

## CC(C)C[C@H](NC(=O)[C@@H](NC(=O)[C@H](Cc1ccc(O)cc1)NC(=O)[C@@H]1CCCN1C(=O)[C@H](CCCNC(=N)N)NC(=O)[C@H](CCCCCN)N=[N+]=[N-])C(C)(C)C)C(=O)O [ABS13, N3-L-homolysine-Arg-Pro-Tyr-tertLeu-Leu-COOH] (X4-RPY[Tle]L-OH)
NTR-1
  EC50: 5.7 ± 0.37 nM
NTR-2 [2]
  EC50: 11.1 ± 0.1 nM

## CC[C@H](C)[C@H](NC(=O)[C@H](Cc1ccc(O)cc1)NC(=O)[C@@H]1CCCN1C(=O)[C@H](CCCNC(=N)N)NC(=O)[C@H](CCCNC(=N)N)N=[N+]=[N-])C(=O)N[C@@H](CC(C)C)C(=O)O [ABS15, X-Arg-Pro-Tyr-isoleu-Leu]
NTR-1
  EC50: 0.4 ± 0.1 nM
NTR-2 [2]
  EC50: 0.9 ± 0.2 nM
NTR-2 [2]; Table 12
  NTR-1/NTR-2 selectivity: 2.5

## CC[C@H](C)[C@H](NC(=O)[C@H](Cc1ccc(O)cc1)NC(=O)[C@@H]1CCCN1C(=O)[C@H](CCCNC(=N)N)NC(=O)[C@H](CCCNC(=N)NC)N=[N+]=[N-])C(=O)N[C@@H](CC(C)C)C(=O)O [ABS16, X-Arg-Pro-Tyr-isoleu-Leu]
NTR-1
  EC50: 0.3 ± 0.05 nM

## CCNC(=N)NCCC[C@H](N=[N+]=[N-])C(=O)N[C@@H](CCCNC(=N)N)C(=O)N1CCC[C@H]1C(=O)N[C@@H](Cc1ccc(O)cc1)C(=O)N[C@H](C(=O)N[C@@H](CC(C)C)C(=O)O)[C@@H](C)CC [ABS17, X-Arg-Pro-Tyr-isoleu-Leu]
NTR-1
  EC50: 0.25 ± 0.07 nM

## CC(C)C[C@H](NC(=O)[C@@H](NC(=O)[C@H](Cc1ccc(O)cc1)NC(=O)[C@@H]1CCCN1C(=O)[C@H](CCCNC(=N)N)NC(=O)[C@@H](C)CCCCCN)C(C)(C)C)C(=O)O [ABS201 HCl] (X1-RPY[Tle]L-OH)
[3]; 50 mg/kg IV
  clinical observation 2 hour post-dosing: all animals appeared grossly normal although marked hypothermia was present
  clinical observation 24 hour post-dosing: all animals appeared grossly normal; hypothermia was absent
[3]; 50 mg/kg IV, slow push via tail vein
  acute behaviour during intravenous dosing: noticeably sedate
[3]; 250 mg/kg PO
  clinical observation after oral dosing: appeared grossly normal at all time points

## CC(C)C[C@H](NC(=O)[C@@H](NC(=O)[C@H](Cc1ccc(O)cc1)NC(=O)[C@@H]1CCCN1C(=O)[C@H](CCCNC(=N)N)NC(=O)[C@@H](C)CCC[N+](C)(C)C)C(C)(C)C)C(=O)O [ABS-212.2HCL] (X2-RPY[Tle]L-OH)
[4]; IV bolus 1 mg/kg
  clearance as % of rat hepatic blood flow (3.31 L/hr/kg): 32.33%
[4]; IV bolus 5 mg/kg
  clearance as % of rat hepatic blood flow (3.31 L/hr/kg): 12.08%
[4]; IV bolus […]
  clearance as % of rat hepatic blood flow (3.31 L/hr/kg): 12.08%
[4]; Sprague-Dawley, rat, plasma, IV 1 mg/kg
  Vd: 0.43 ± 0.15 L/kg
[4]; Sprague-Dawley, rat, plasma, IV 2.5 mg/kg
  Vd: 0.15 ± 0.01 L/kg
[4]; Sprague-Dawley, rat, plasma, IV 5 mg/kg
  Vd: 0.16 ± 0.06 L/kg
[4]; [7]
  half-life: 16.8 ± 4.8 min
  clearance: 17.8 mL/min/kg
[4]; [8]
  half-life: 16.8 ± 6.6 min
  clearance: 6.67 mL/min/kg
[4]; [9]
  half-life: 17.4 ± 7.8 min
  clearance: 6.67 mL/min/kg
[4]; [10]
  AUC(0-inf): 53.1 ± 39.6 ng·h/mL
  Cmax: 27.1 ± 11.6 ng/mL
  Tmax: 8.4 ± 3 min
  half-life: 85.2 ± 52.2 min
[4]; Sprague-Dawley, rat, plasma, oral 50 mg/kg, 1 mg/kg group as IV dose data
  bioavailability: 0.11 ± 0.08%

## CN1CC[C@]23c4c5ccc(O)c4O[C@H]2[C@@H](O)C=C[C@H]3[C@H]1C5 [Morphine, reference compound]
Formalin assay
  duration of activity of morphine: loses activity after 30 minutes
Tail flick assay
  MPE (0 min): 0.03 +/− 0.05
  MPE (30 min): 63.7 +/− 41.9
  MPE (60 min): 67.5 +/− 25.8

## CC[C@H](C)[C@H](NC(=O)[C@H](Cc1ccc(O)cc1)NC(=O)[C@@H]1CCCN1C(=O)[C@H](CCCNC(=N)N)NC(=O)[C@@H](N)CCCNC(=N)N)C(=O)N[C@@H](CC(C)C)C(=O)O [NT(8-13), NH2-Arg-Arg-Pro-Tyr-Ile-Leu-COOH]
[5]
  Hyperlocomotion Inhibition (active routes): CNS administration
  Inhibits locomotor activity (active routes): CNS administration
[6]
  Catalepsy: No
In vitro
  half-life: 5 min

## Arg-Arg-Pro-Tyr-t-Leu-Leu [ABS213]
NTR-2 [1]
  Tmax (I.P.) of %MPE: 30
NTR-2 [1]; 10 mg/kg
  MPE (I.P.): 48%

## Arg-Arg-Pro-Tyr-t-Leu-Leu [ABS237]
NTR-2 [1]
  Tmax (I.P.) of %MPE: 30
NTR-2 [1]; 10 mg/kg
  MPE (I.P.): 50%

## Boc-Arg-Pro-Tyr-t-Leu-Leu [ABS700]
NTR-2 [1]
  Tmax (I.P.) of %MPE: 90
  MPE (I.P.): 51%

## Lys-Arg-Pro-Tyr-t-Leu-Leu [ABS205]
NTR-2 [1]; 10 mg/kg
  Tmax (I.P.) of %MPE: 15-30
  MPE (I.P.): 86%
NTR-2 [1]
  asterisk at peptide name: significant activity in the hotplate assay: ABS205*
  Tmax (Oral) of %MPE: 30
NTR-2 [1]; hotplate
  MPE (oral): 66%

## Lys-Arg-Pro-Tyr-t-Leu-Leu [ABS229]
NTR-2 [1]; 10 mg/kg
  Tmax (I.P.) of %MPE: 60
  MPE (I.P.): 48%

## Orn-Arg-Pro-Tyr-t-Leu-Leu [ABS209]
NTR-2 [1]; 10 mg/kg
  Tmax (I.P.) of %MPE: 60
  MPE (I.P.): 89%

## Orn-Arg-Pro-Tyr-t-Leu-Leu [ABS233]
NTR-2 [1]; 10 mg/kg
  Tmax (I.P.) of %MPE: 45
  MPE (I.P.): 51%

## X-Arg-Pro-Tyr-isoleu-Leu [ABS19]
NTR-1; competitive binding, Table 12, read-out: NTR-1
  EC50: 1.2 ± 0.7 nM

## hLys-Arg-Pro-Tyr-t-Leu-Leu [ABS225]
NTR-2 [1]
  Tmax (I.P.) of %MPE: 15-45
  asterisk at peptide name: significant activity in the hotplate assay: ABS225*
  MPE (I.P.): 100%
  Tmax (Oral) of %MPE: 30
NTR-2 [1]; hotplate
  MPE (oral): 38%
